Reference: BindingDB's records for doi:10.1021/jm060955d (Abbott Laboratories, 2006)

What was measured:
Test in all cases: DPP Inhibition Assay
Conditions in all cases: pH 7.5; 22 °C
Dipeptidyl peptidase 4 = Dipeptidyl peptidase 4 (Homo sapiens, UniProt P27487)
Method: (§1) For each concentration of inhibitor or DMSO control, the steady state rates were used to fit a rectangular hyperbola, from which Km and Vmax values were determined by nonlinear regression analysis. The ratio of the Km/Vmax vs inhibitor concentration was plotted and the negative X-intercept, as calculated by linear regression, was the competitive Ki.

Dipeptidyl peptidase 8 = Dipeptidyl peptidase 8 (Homo sapiens, UniProt Q6V1X1)
Method: as §1

Dipeptidyl peptidase 9 = Dipeptidyl peptidase 9 (Homo sapiens, UniProt Q86TI2)
Method: as §1

Chain of Dipeptidyl peptidase 4 (P27487 whole entry): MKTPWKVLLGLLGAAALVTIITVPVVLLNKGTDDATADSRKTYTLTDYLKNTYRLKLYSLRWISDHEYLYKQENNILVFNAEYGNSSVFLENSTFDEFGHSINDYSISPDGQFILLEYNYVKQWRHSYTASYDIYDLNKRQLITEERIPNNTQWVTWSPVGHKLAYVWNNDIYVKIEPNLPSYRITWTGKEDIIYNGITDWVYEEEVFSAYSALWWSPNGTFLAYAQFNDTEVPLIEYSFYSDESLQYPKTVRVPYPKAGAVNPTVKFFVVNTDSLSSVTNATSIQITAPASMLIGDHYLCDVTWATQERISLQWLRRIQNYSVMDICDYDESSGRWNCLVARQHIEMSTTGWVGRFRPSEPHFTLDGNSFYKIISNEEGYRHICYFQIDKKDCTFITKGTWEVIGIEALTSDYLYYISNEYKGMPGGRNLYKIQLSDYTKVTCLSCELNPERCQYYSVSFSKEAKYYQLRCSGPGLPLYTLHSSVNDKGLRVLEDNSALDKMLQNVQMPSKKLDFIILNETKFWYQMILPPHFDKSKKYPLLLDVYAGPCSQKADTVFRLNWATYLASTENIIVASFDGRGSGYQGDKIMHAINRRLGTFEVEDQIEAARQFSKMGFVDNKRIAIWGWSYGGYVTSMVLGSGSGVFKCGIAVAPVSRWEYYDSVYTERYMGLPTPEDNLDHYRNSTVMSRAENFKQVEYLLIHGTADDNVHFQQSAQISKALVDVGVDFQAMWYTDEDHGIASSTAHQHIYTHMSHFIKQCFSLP
Chain of Dipeptidyl peptidase 8 (Q6V1X1 whole entry): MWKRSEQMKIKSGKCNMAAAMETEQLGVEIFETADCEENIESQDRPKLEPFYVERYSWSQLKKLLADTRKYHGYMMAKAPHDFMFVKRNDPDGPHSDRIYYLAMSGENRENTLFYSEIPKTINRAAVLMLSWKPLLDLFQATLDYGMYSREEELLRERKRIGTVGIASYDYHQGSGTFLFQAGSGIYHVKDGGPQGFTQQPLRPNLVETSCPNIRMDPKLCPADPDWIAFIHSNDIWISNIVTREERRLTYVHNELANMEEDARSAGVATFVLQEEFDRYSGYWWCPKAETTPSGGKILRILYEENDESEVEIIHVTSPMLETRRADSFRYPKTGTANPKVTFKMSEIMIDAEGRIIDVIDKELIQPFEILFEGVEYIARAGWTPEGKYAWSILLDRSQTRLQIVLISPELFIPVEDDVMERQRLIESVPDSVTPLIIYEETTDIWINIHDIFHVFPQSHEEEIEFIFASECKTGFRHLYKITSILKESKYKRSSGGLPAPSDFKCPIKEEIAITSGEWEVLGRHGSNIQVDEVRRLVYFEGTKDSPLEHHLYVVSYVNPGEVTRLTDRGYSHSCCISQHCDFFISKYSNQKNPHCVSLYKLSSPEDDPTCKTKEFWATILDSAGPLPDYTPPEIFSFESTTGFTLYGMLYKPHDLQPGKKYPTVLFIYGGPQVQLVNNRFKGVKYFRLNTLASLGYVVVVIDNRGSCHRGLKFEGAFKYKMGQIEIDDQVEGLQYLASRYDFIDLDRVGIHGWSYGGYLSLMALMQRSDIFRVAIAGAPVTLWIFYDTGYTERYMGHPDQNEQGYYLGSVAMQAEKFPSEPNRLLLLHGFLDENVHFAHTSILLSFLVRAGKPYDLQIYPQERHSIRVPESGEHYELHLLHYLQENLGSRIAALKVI
Chain of Dipeptidyl peptidase 9 (Q86TI2 whole entry): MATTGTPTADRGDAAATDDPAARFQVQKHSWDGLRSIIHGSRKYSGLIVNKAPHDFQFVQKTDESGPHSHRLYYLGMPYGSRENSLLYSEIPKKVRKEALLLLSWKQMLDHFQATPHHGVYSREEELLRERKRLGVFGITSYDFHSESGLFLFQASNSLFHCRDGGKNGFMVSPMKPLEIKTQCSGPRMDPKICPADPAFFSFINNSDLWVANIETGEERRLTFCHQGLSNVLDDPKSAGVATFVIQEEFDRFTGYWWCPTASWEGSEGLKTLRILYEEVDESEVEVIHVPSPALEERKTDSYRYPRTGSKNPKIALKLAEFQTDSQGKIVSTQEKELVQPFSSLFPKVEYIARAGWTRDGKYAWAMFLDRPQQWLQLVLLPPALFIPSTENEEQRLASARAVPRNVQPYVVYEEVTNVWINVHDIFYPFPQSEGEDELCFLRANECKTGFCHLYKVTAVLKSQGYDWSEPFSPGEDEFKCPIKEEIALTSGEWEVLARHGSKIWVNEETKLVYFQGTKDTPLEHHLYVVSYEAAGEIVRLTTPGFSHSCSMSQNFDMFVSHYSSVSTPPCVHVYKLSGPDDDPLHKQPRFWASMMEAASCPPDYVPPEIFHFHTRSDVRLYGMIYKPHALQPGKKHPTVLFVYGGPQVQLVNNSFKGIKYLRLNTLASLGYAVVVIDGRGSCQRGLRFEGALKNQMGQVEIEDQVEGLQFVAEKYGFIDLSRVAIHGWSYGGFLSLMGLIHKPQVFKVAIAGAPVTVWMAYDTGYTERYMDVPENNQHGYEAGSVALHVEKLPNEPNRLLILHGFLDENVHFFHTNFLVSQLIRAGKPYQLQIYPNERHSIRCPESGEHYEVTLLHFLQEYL

Row | Ki (Dipeptidyl peptidase 4) [nM] | Ki (Dipeptidyl peptidase 8) [nM] | Ki (Dipeptidyl peptidase 9) [nM] | SMILES
1 | < 140 | – | – | N[C@H]1CC(c2ccccc2)=CC[C@@H]1c1ccccc1Cl [(1S,6R)-6-(2-chlorophenyl)-3-phenylcyclohex-3-en-1-aminium; 2,2,2-trifluoroacetate]
2 | 1.3 | > 30000 | 4000 | N[C@H]1CC(C(=O)N2CCn3c(nnc3C(F)(F)F)C2)=CC[C@@H]1c1cc(F)c(F)cc1F [(1S,6R)-3-{[3-(trifluoromethyl)-5H,6H,7H,8H-[1,2,4]triazolo[3,4-a]pyrazin-7-yl]carbonyl}-6-(2,4,5-trifluorophenyl)cyclohex-3-en-1-aminium; 2,2,2-trifluoroacetate]
